US10694742B2, “Composition comprising a pesticide and a hydroxyalkyl polyoxylene glycol ether” (BASF SE, priority 2014, dated 2020)

How the values were obtained:
Wheat plants = experiment: Uptake rate of pesticide into sprayed wheat leaves (HPLC-MS/MS); format: in vivo, Triticum aestivum variety Melon; details: 125 g/ha epoxiconazole, 125 g/ha fluxapyroxad, 250 g/ha adjuvant compound; 200 l/ha; leaves sampled after 8 days
From the text: Wheat plants (Triticum aestivum variety Melon) were cultivated in the greenhouse for 6 weeks up to development stage BBCH 39. The plants were transferred to an automatic lab track sprayer and they were sprayed with 125 g/ha epoxiconazole, 125 g/ha fluxapyroxad, and 250 g/ha of the respective Compound 1-5 according to the following parameters:
Nozzle type: Air injector, ID 120 02 (Lechler, Germany)
Subsequently to spraying, the plants were cultivated again in the greenhouse under ambient conditions. After 8 days samples of 10-15 treated leaves were cut off and weighed.
Leaves were cut into small pieces, transferred into glass bottles and washed with 50% methanol in demineralized water as washing medium for 5 min. Then, the washing medium was separated from the leaves. The leaves were washed again with washing medium for 5 min. […]
Finally, the leaves were transferred to a vial containing the extraction medium (75% methanol, 20% water and 5% HCl) and homogenized using a Polytron PT 6100 dispersing unit (Kinematica, CH) for 2 min. […] The residue was solubilized in methanol/water 50:50 and analyzed by HPLC-MS/MS.
An Agilent 1100 series HPLC coupled to an Applied Biosystems API 3000 triple quadrupole mass spectrometer, equipped with an electro spray ionization source, was used. […] According to the recovery rate the measured sample values were corrected. […]

Septoria and Brown rust = experiment: Field trial winter wheat, yield; format: in vivo, winter wheat (var. Akteur); details: for Yield Winter Wheat, Relative Yield (%): half rate (N/2) Epoxiconazole SC 125 applied twice at BBCH 32 and 51, adjuvant 150 ml/ha in tank mix, comparative experiment = 100.0
Method: (§1) Field studies were conducted on a Parabraunerde soil in accordance with GEP in southern Germany on commercially planted winter wheat (var. Akteur) and winter rapeseed (var. Genie), respectively, exposed to a maritime climate. The standard experimental design was a randomized complete block with 4 replicates. There was no artificial infestation. Fungicides were applied at their label rate (N) and when mixed with adjuvants in the tank, at half rate (N/2). Dose rate of adjuvants was 150 ml/ha. Efficacy was measured by yield in dt/ha. Following the analysis of variance a mean separation test (Student-Newman-Keuls) was applied at a 5% significance level. All treatments were fully selective.
Spray volume was 200 l/ha applied with an AirMix 110-03 nozzle at a pressure of 1.9 bar. Plots were in 2.5 m by 7 m large. Epoxiconazole SC 125 with a dispersing additive (based on naphthalene sulfonic acid formaldehyde condensation product, sodium salt) was applied twice at the growth stages (BBCH) 32 and 51. During the course of trial, there was a natural infestation of Septoria and Brown rust. In each treatment, the dose rate of adjuvants was 150 ml/ha.
(§2) For a quantitative measure, the yield of each treatment was determined.

Puccinia triticina = experiment: Greenhouse biological activity on infected wheat; format: in vivo, Puccinia triticina on wheat (species Kanzler); details: sprayed three days after infection, rated after ten days, three replicates
Method: The biological activity was assessed in a greenhouse on wheat (species “Kanzler”), which was infected with Puccinia triticina at two leafes stage and incubated for three days at high humidity. The plants were sprayed (spray volume 200 l/ha) with a composition comprising 50 ppm (10 g/ha or 2.5 g/ha dose rate) epoxiconazole and 100 ppm (20 g/ha) of the respective Compounds 1-7. In the comparative example no adjuvant was added. The plants were further cultivated for ten days at 20-24° C. and 60-90% relative humidity. Finally, the percentage of the infected leaf area (pustules) was visually inspected. Each value was based on three replicates.

Sclerotinia sp. = experiment: Field trial rapeseed, yield; format: in vivo, winter rapeseed (var. Genie); details: half rate (N/2) Cantus Gold SC applied at BBCH 51; adjuvant 150 ml/ha in tank mix; comparative experiment = 100.0
Method: as §1
Spray volume was 250 l/ha applied with an AirMix 110-03 nozzle at a pressure of 2.1 bar. Plots were in 3 m by 7 m large. Cantus® Gold SC (200 g/l Boscalid and 200 g/l Dimoxystrobin with a dispersing additive based on benzenesulfonic acid, hydroxy-, polymer with formaldehyde, phenol and urea, sodium salt) was applied at the growth stage (BBCH) 51 of rapeseed on a Parabraunerde soil. During the course of trial, there was a natural infestation of Sclerotinia sp. In each treatment, the dose rate of adjuvants was 150 ml/ha.
as §2

SMILES | Epoxiconazole Uptake Rate [%] (Wheat plants) | Yield Winter Wheat, Relative Yield (%) (Septoria and Brown rust) | Infected leaf area 2,5 g/ha dose rate (Puccinia triticina; epoxiconazole 2,5 g/ha + 100 ppm (20 g/ha) adjuvant compound) [%] | Infected leaf area 10 g/ha dose rate (Puccinia triticina; epoxiconazole 10 g/ha + 100 ppm (20 g/ha) adjuvant compound) [%] | Yield Rapeseed, Relative Yield (%) (Sclerotinia sp.) | Improvement of yield of the half rate (N/2) compared to N/2 alone, wheat (Septoria and Brown rust; N/2 epoxiconazole + adjuvant 150 ml/ha, Student-Newman-Keuls, 5% significance level)
Fc1ccc([C@]2(Cn3cncn3)O[C@H]2c2ccccc2Cl)cc1 (racemic) [epoxiconazole] | 19 | 103.5 | 78 | 48 |  | 
CCCCCCCCC(O)COCCOCCOCCOCCOCCOCCOCCOCCOCCOCC(CC)CCCC (stereo not shown) [Compound C] |  | 109.4 |  |  | 104.6 | significant improvements
